Assay results reported in US8461152B2, “Arylcyclohexylethers of dihydrotetraazabenzoazulenes” (Hoffmann-La Roche Inc., priority 2008, dated 2013).

Molecular target: T1, human V1a receptor (Homo sapiens, UniProt P37288)
T1 construct: expressed in transfected cells; host or cells: HEK293 cells, transiently transfected; membrane preparation
Test: human V1a receptor binding studies (SPA, 3H-Vasopressin, membranes of transfected HEK293 cells)
Conditions: displacement of 3H-Vasopressin, HEK293 cell membranes, 1 h at room temperature; Ki by Cheng-Prussoff equation; read-out: pKi (hV1a) (converted)
Procedure: The human V1a receptor was cloned by RT-PCR from total human liver RNA. The coding sequence was subcloned in an expression vector after sequencing to confirm the identity of the amplified sequence. […] Cell membranes were prepared from HEK293 cells transiently transfected with the expression vector and grown in 20 liter fermenters with the following protocol.
50 g of cells are resuspended in 30 ml freshly prepared ice cold Lysis buffer (50 mM HEPES, 1 mM EDTA, 10 mM magnesium dichloride adjusted to pH=7.4+complete cocktail of protease inhibitor (Roche Diagnostics)). Homogenized with Polytron for 1 min and sonicated on ice for 2×2 minutes at 80% intensity (Vibracell sonicator). The preparation is centrifuged 20 min at 500 g at 4° C., the pellet is discarded and the supernatant centrifuged 1 hour at 43'000 g at 4° C. (19'000 rpm). The pellet is resuspended in 12.5 ml Lysis buffer+12.5 ml Sucrose 20% and homogenized using a Polytron for 1-2 min. The protein concentration is determined by the Bradford method and aliquots are stored at −80° C. until use. For binding studies 60 mg Yttrium silicate SPA beads (Amersham) are mixed with an aliquot of membrane in binding buffer (50 mM Tris, 120 mM sodium chloride, 5 mM potassium chloride, 2 mM Calcium dichloride, 10 mM magnesium dichloride) for 15 minutes with mixing. 50 μl of bead/membrane mixture is then added to each well of a 96 well plate, followed by 50 μl of 4 nM 3H-Vasopressin (American Radiolabeled Chemicals). For total binding measurement 100 μl of binding buffer are added to the respective wells, for non-specific binding 100 μl of 8.4 mM cold vasopressin and for compound testing 100 μl of a serial dilution of each compound in 2% dimethyl sulfoxide. The plate is incubated 1 h at room temperature, centrifuged […] at 1000 g and counted on a Packard Top-Count. Non-specific binding counts are subtracted from each well and data is normalized to the maximum specific binding set at 100%. To calculate an IC 50 the curve is fitted using a non-linear regression model (XLfit) and the Ki is calculated using the Cheng-Prussoff equation.

T1 sequence (P37288 whole entry): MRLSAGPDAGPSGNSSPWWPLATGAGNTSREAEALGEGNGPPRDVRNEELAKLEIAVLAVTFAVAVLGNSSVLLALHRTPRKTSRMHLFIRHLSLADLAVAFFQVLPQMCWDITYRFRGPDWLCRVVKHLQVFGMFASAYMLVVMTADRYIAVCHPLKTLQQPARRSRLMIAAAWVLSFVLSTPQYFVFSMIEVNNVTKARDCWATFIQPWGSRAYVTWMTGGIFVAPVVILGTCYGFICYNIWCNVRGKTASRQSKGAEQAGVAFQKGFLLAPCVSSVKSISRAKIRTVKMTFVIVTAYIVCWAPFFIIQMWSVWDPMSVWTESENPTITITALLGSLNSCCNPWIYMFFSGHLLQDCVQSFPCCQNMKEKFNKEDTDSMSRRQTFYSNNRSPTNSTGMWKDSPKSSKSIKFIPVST

SMILES | Ki [nM]
CN1Cc2cc(Cl)ccc2-n2c(nnc2[C@H]2CC[C@H](Oc3ncccn3)CC2)C1 [Example 82, trans-8-Chloro-5-methyl-1-[4-(pyrimidin-2-yloxy)-cyclohexyl]-5,6-dihydro-4H-2,3,5,10b-tetraaza-benzo[e]azulene] | 5.5
CC(C)(C)OC(=O)N1Cc2cc(Cl)ccc2-n2c(nnc2[C@H]2CC[C@H](Oc3cnccn3)CC2)C1 [Example 83, trans-8-Chloro-1-[4-(pyrazin-2-yloxy)-cyclohexyl]-4H,6H-2,3,5,10b-tetraaza-benzo[e]azulene-5-carboxylic acid tert-butyl ester] | 4.07
CN1Cc2cc(Cl)ccc2-n2c(nnc2[C@H]2CC[C@H](Oc3cnccn3)CC2)C1 [Example 85, trans-8-Chloro-5-methyl-1-[4-(pyrazin-2-yloxy)-cyclohexyl]-5,6-dihydro-4H-2,3,5,10b-tetraaza-benzo[e]azulene] | 7.59
CC(C)(C)OC(=O)N1Cc2cc(Cl)ccc2-n2c(nnc2[C@H]2CC[C@H](Oc3ccncn3)CC2)C1 [Example 86, trans-8-Chloro-1-[4-(pyrimidin-4-yloxy)-cyclohexyl]-4H,6H-2,3,5,10b-tetraaza-benzo[e]azulene-5-carboxylic acid tert-butyl ester] | 3.47
CN1Cc2cc(Cl)ccc2-n2c(nnc2[C@H]2CC[C@H](Oc3ccncn3)CC2)C1 [Example 89, trans-8-Chloro-5-methyl-1-[4-(pyrimidin-4-yloxy)-cyclohexyl]-5,6-dihydro-4H-2,3,5,10b-tetraaza-benzo[e]azulene] | 12.3
CC(C)(C)OC(=O)N1Cc2cc(Cl)ccc2-n2c(nnc2[C@H]2CC[C@H](Oc3cccnn3)CC2)C1 [Example 92, trans-8-Chloro-1-[4-(pyridazin-3-yloxy)-cyclohexyl]-4H,6H-2,3,5,10b-tetraaza-benzo[e]azulene-5-carboxylic acid tert-butyl ester] | 2.4
CC(C)(C)OC(=O)N1Cc2cc(Cl)ccc2-n2c(nnc2[C@H]2CC[C@@H](Oc3cccnn3)CC2)C1 [Example 93, cis-8-Chloro-1-[4-(pyridazin-3-yloxy)-cyclohexyl]-4H,6H-2,3,5,10b-tetraaza-benzo[e]azulene-5-carboxylic acid tert-butyl ester] | 7.94
CN1Cc2cc(Cl)ccc2-n2c(nnc2[C@H]2CC[C@H](Oc3cccnn3)CC2)C1 [Example 95, trans-8-Chloro-5-methyl-1-[4-(pyridazin-3-yloxy)-cyclohexyl]-5,6-dihydro-4H-2,3,5,10b-tetraaza-benzo[e]azulene] | 9.12
Fc1cccnc1O[C@H]1CC[C@H](c2nnc3n2-c2ccc(Cl)cc2CNC3)CC1 [Example 98, trans-8-Chloro-1-[4-(3-fluoro-pyridin-2-yloxy)-cyclohexyl]-5,6-dihydro-4H-2,3,5,10b-tetraaza-benzo[e]azulene] | 3.02
Fc1ccc(O[C@H]2CC[C@H](c3nnc4n3-c3ccc(Cl)cc3CNC4)CC2)nc1 [Example 101, trans-8-Chloro-1-[4-(5-fluoro-pyridin-2-yloxy)-cyclohexyl]-5,6-dihydro-4H-2,3,5,10b-tetraaza-benzo[e]azulene] | 9.12
Cc1cccc(O[C@H]2CC[C@H](c3nnc4n3-c3ccc(Cl)cc3CNC4)CC2)n1 [Example 105, trans-8-Chloro-1-[4-(6-methyl-pyridin-2-yloxy)-cyclohexyl]-5,6-dihydro-4H-2,3,5,10b-tetraaza-benzo[e]azulene] | 5.75
Clc1ccc2c(c1)CNCc1nnc([C@H]3CC[C@@H](Oc4ccccn4)CC3)n1-2 [Example 110, cis-8-Chloro-1-[4-(pyridin-2-yloxy)-cyclohexyl]-5,6-dihydro-4H-2,3,5,10b-tetraaza-benzo[e]azulene] | 51.3
CN1Cc2cc(Cl)ccc2-n2c(nnc2[C@H]2CC[C@@H](Oc3ccccn3)CC2)C1 [Example 111, cis-8-Chloro-5-methyl-1-[4-(pyridin-2-yloxy)-cyclohexyl]-5,6-dihydro-4H-2,3,5,10b-tetraaza-benzo[e]azulene] | 3.31
